According to patent publication US20080207527A1, “Bicyclic Compounds Which Inhibit Beta-Secretase Activity and Methods of Use Thereof” (CoMentis, Inc., priority 2004, published 2008):

Columns and labels:
[1] = molecular target: memapsin 2 (Homo sapiens, UniProt P56817); assay: Inhibition of memapsin 2 beta-secretase activity toward fluorogenic substrate FS-2; type: biochemical; conditions: pH 4, 37° C., 20 minutes pre-incubation, read-out: M2 Ki
Outline: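 Enzyme pre-incubated with compound 20 min at pH 4, 37 °C, then fluorogenic substrate FS-2 added. Inhibition derived from rate of fluorescence increase from peptide hydrolysis.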

[2] = system: Aβ production; assay: Cellular Aβ IC50 determination (Aβ40 sandwich ELISA); type: cell-based; conditions: Cricetulus griseus, Chinese hamster ovary cells over-expressing human APP695 with London and Swedish mutations, 24 h
Outline: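 CHO cells over-expressing human APP695 (London and Swedish mutations) were treated 48 h after seeding with serially diluted compound, top final concentration near 4 μM (0.4% DMSO), for 24 h at 37 °C, 5% CO2. Aβ40 in medium was measured by sandwich ELISA; values relative to control were fit to a 4-parameter IC50 model.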

[3] = molecular target: T1, memapsin 1 (Homo sapiens, UniProt Q9Y5Z0); assay: Inhibition of memapsin 1 beta-secretase activity (substrate peptide hydrolysis, MALDI-TOF); type: biochemical; conditions: pH 4.1, 37 degrees C., read-out: M1 Ki
T1 sequence (Q9Y5Z0 63-518): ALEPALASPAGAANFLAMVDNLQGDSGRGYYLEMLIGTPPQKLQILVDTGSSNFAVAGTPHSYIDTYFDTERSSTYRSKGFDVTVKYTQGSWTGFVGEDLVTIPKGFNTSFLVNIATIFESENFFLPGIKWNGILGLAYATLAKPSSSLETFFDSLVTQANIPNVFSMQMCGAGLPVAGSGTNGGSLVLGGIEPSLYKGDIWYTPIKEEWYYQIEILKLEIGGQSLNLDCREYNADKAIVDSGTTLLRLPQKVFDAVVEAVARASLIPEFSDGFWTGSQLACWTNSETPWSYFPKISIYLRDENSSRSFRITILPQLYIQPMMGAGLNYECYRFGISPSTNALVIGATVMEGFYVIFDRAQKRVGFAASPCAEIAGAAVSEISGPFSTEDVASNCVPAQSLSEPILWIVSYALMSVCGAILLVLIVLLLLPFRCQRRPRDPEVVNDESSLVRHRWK

[4] = molecular target: Cathepsin D (Homo sapiens, UniProt P07339); assay: Inhibition of cathepsin D activity (substrate peptide hydrolysis, MALDI-TOF); type: biochemical; conditions: pH 4.1, 37 degrees C., read-out: Cath D Ki
Cathepsin D, sequence (P07339 65-412, species assumed): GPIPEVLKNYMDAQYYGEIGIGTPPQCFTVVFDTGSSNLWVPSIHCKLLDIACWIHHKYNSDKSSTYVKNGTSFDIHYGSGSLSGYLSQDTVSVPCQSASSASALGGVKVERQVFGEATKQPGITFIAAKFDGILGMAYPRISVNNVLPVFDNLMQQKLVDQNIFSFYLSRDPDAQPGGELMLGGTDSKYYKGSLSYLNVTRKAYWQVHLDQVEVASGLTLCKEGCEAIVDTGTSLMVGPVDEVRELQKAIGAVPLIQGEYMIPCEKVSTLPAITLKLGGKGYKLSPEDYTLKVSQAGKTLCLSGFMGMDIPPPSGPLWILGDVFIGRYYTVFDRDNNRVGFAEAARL

memapsin 2, sequence (P56817 46-501): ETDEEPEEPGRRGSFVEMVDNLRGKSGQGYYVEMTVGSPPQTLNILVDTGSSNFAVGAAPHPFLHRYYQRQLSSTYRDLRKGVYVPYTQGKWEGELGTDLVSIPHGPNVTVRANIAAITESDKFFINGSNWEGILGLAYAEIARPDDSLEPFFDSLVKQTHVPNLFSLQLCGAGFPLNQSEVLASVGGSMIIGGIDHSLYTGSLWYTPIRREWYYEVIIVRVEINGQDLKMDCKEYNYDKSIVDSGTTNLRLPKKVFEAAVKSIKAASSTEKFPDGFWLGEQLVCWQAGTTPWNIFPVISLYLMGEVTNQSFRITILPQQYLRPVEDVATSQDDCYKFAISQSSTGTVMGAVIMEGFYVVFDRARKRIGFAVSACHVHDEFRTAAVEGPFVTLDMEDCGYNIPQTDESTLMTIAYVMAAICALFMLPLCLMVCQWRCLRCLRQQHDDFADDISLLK

Row | SMILES | Ki [1] [µM] | IC50 [2] [µM] | Ki [3] [µM] | Ki [4] [µM]
1 | CC(C)CNC(=O)C(NC(=O)C(C)CC(O)C(CC(C)C)NC(=O)c1cc(C(=O)N(C)Cc2ccccn2)cc(N(C)S(C)(=O)=O)c1)C(C)C (stereo not shown) [N1-(5-hydroxy-8-(1-(isobutylamino)-3-methyl-1-oxobutan-2-ylamino)-2,7-dimethyl-8-oxooctan-4-yl)-N3-methyl-5-(N-methylmethylsulfonamido)-N3-(pyridin-2-ylmethyl)isophthalamide] | < 0.405 | > 20 | 0.405 to 2 | < 0.405
2 | CC(C)CNC(=O)C(NC(=O)C(C)CC(O)C(CC(C)C)NC(=O)c1cccc(C(=O)N(C)C(C)c2ccccc2)c1)C(C)C (stereo not shown) [N1-(5-hydroxy-8-(1-(isobutylamino)-3-methyl-1-oxobutan-2-ylamino)-2,7-dimethyl-8-oxooctan-4-yl)-N3-methyl-N3-(1-phenylethyl)isophthalamide] | < 0.405 | > 20 | < 0.405 | < 0.405
3 | Cc1csc(CN(C)C(=O)c2cccc(C(=O)NC(CC(C)C)C(O)CC(C)C(=O)NC(C(=O)NCC(C)C)C(C)C)c2)n1 (stereo not shown) [N1-(5-hydroxy-8-(1-(isobutylamino)-3-methyl-1-oxobutan-2-ylamino)-2,7-dimethyl-8-oxooctan-4-yl)-N3-methyl-N3-((4-methylthiazol-2-yl)methyl)isophthalamide] | < 0.405 | < 5 | 0.405 to 2 | < 0.405
4 | CC(C)CNC(=O)C(NC(=O)C(C)CC(O)C(CC(C)C)NC(=O)c1cccc(C(=O)N(C)Cc2ccccn2)c1)C(C)C (stereo not shown) [N1-(5-hydroxy-8-(1-(isobutylamino)-3-methyl-1-oxobutan-2-ylamino)-2,7-dimethyl-8-oxooctan-4-yl)-N3-methyl-N3-(pyridin-2-ylmethyl)isophthalamide] | 0.405 to 2 | > 20 | < 0.405 | < 0.405
5 | CC(C)CNC(=O)C(NC(=O)C(C)CC(O)C(CC(C)C)NC(=O)c1cccc(C(=O)N(C)Cc2cccnc2)c1)C(C)C (stereo not shown) [N1-(5-hydroxy-8-(1-(isobutylamino)-3-methyl-1-oxobutan-2-ylamino)-2,7-dimethyl-8-oxooctan-4-yl)-N3-methyl-N3-(pyridin-3-ylmethyl)isophthalamide] | < 0.405 | > 20 | < 0.405 | < 0.405
6 | CCC(NC(=O)C(C)CC(O)C(CC(C)C)NC(=O)c1cccc(C(=O)N(C)Cc2nc(C)cs2)c1)C(=O)NC(C)C (stereo not shown) [N1-(5-hydroxy-8-(1-(isopropylamino)-1-oxobutan-2-ylamino)-2,7-dimethyl-8-oxooctan-4-yl)-N3-methyl-N3-((4-methylthiazol-2-yl)methyl)isophthalamide] | < 0.405 | < 5 | > 5 | 0.405 to 2
7 | CCN1CCCC1CNC(=O)C(NC(=O)C(C)CC(O)C(CC(C)C)NC(=O)c1cc(C(=O)NC(C)c2ccccc2)cc(N(C)S(C)(=O)=O)c1)C(C)C (stereo not shown) [N1-(8-(1-((1-ethylpyrrolidin-2-yl)methylamino)-3-methyl-1-oxobutan-2-ylamino)-5-hydroxy-2,7-dimethyl-8-oxooctan-4-yl)-5-(N-methylmethylsulfonamido)-N3-(1-phenylethyl)isophthalamide] | < 0.405 | < 5 | < 0.405 | < 0.405
8 | CCc1csc(CN(C)C(=O)c2cccc(C(=O)NC(CC(C)C)C(O)CC(C)C(=O)NC(C(=O)NCC(C)C)C(C)C)c2)n1 (stereo not shown) [N1-((4-ethylthiazol-2-yl)methyl)-N3-(5-hydroxy-8-(1-(isobutylamino)-3-methyl-1-oxobutan-2-ylamino)-2,7-dimethyl-8-oxooctan-4-yl)-N1-methylisophthalamide] | < 0.405 | > 20 | < 0.405 | > 5
9 | CC(C)CNC(=O)C(NC(=O)C(C)CC(O)C(CC(C)C)NC(=O)c1cncc(C(=O)N(C)Cc2ccccn2)c1)C(C)C (stereo not shown) [N3-(5-hydroxy-8-(1-(isobutylamino)-3-methyl-1-oxobutan-2-ylamino)-2,7-dimethyl-8-oxooctan-4-yl)-N5-methyl-N5-(pyridin-2-ylmethyl)pyridine-3,5-dicarboxamide] | < 0.405 | > 20 | < 0.405 | < 0.405
10 | CC(C)CC(NC(=O)c1cc(C(=O)NC(C)c2ccccc2)cc(N(C)C(=O)OC2CCOC2)c1)C(O)CC(C)C(=O)NC(C(=O)NC(C)C)C(C)C (stereo not shown) [tetrahydrofuran-3-yl 3-(5-hydroxy-8-(1-(isopropylamino)-3-methyl-1-oxobutan-2-ylamino)-2,7-dimethyl-8-oxooctan-4-ylcarbamoyl)-5-(1-phenylethylcarbamoyl)phenyl(methyl)carbamate] | 0.405 to 2 | > 20 | < 0.405 | < 0.405

Continued, values first:

Row | Ki [1] [µM] | IC50 [2] [µM] | Ki [3] [µM] | Ki [4] [µM] | SMILES
11 | < 0.405 | > 20 | 2 to 5 | 0.405 to 2 | Cc1csc(CNC(=O)c2cccc(C(=O)N[C@@H](CC(C)C)[C@@H](O)C[C@@H](C)C(=O)N[C@H](C(=O)NCC(C)C)C(C)C)c2)n1 [N1-(5-hydroxy-8-(1-(isobutylamino)-3-methyl-1-oxobutan-2-ylamino)-2,7-dimethyl-8-oxooctan-4-yl)-N3-((4-methylthiazol-2-yl)methyl)isophthalamide]
12 | < 0.405 | < 5 | 0.405 to 2 | 0.405 to 2 | Cc1ccc(CNC(=O)c2cc(C(=O)NC(CC(C)C)C(O)CC(C)C(=O)NC(C(=O)NCC(C)C)C(C)C)cc(N(C)S(C)(=O)=O)c2)o1 (stereo not shown) [N1-(5-hydroxy-8-(1-(isobutylamino)-3-methyl-1-oxobutan-2-ylamino)-2,7-dimethyl-8-oxooctan-4-yl)-N3-((5-methylfuran-2-yl)methyl)-5-(N-methylmethylsulfonamido)isophthalamide]
13 | 0.405 to 2 | > 20 | < 0.405 | < 0.405 | CC(C)CNC(=O)C(NC(=O)C(C)CC(O)C(CC(C)C)NC(=O)c1cc(C(=O)N(C)C(C)c2ccccc2)cc(N(C)S(C)(=O)=O)c1)C(C)C (stereo not shown) [N1-(5-hydroxy-8-(1-(isobutylamino)-3-methyl-1-oxobutan-2-ylamino)-2,7-dimethyl-8-oxooctan-4-yl)-N3-methyl-5-(N-methylmethylsulfonamido)-N3-(1-phenylethyl)isophthalamide]
14 | 0.405 to 2 | > 20 | 0.405 to 2 | < 0.405 | CC(C)CNC(=O)C(NC(=O)C(C)CC(O)C(CC(C)C)NC(=O)c1cccc(C(=O)N(C)Cc2cnccn2)c1)C(C)C (stereo not shown) [N1-(5-hydroxy-8-(1-(isobutylamino)-3-methyl-1-oxobutan-2-ylamino)-2,7-dimethyl-8-oxooctan-4-yl)-N3-methyl-N3-(pyrazin-2-ylmethyl)isophthalamide]
15 | > 5 | 10 to 20 | > 5 | > 5 | COc1cccc(CNC(=O)C(C)CC(O)C(CC(C)C)NC(=O)c2cc(C(=O)NC(C)c3ccccc3)cc(N(C)S(C)(=O)=O)c2)c1 (stereo not shown) [N1-(5-hydroxy-8-(3-methoxybenzylamino)-2,7-dimethyl-8-oxooctan-4-yl)-5-(N-methylmethylsulfonamido)-N3-(1-phenylethyl)isophthalamide]
16 | 2 to 5 | > 20 | 2 to 5 | > 5 | CC(C)CC(NC(=O)c1cc(C(=O)NC(C)c2ccccc2)cc(N(C)S(C)(=O)=O)c1)C(O)CC(C)C(=O)NCc1ccccc1 (stereo not shown) [N1-(8-(benzylamino)-5-hydroxy-2,7-dimethyl-8-oxooctan-4-yl)-5-(N-methylmethylsulfonamido)-N3-(1-phenylethyl)isophthalamide]
17 | < 0.405 | > 20 | 0.405 to 2 | < 0.405 | CC(C)CNC(=O)C(NC(=O)C(C)CC(O)C(CC(C)C)NC(=O)c1cccc(C(=O)N(C)Cc2ccco2)c1)C(C)C (stereo not shown) [N1-(furan-2-ylmethyl)-N3-(5-hydroxy-8-(1-(isobutylamino)-3-methyl-1-oxobutan-2-ylamino)-2,7-dimethyl-8-oxooctan-4-yl)-N1-methylisophthalamide]
18 | < 0.405 | 10 to 20 | < 0.405 | < 0.405 | CC(C)CNC(=O)C(NC(=O)C(C)CC(O)C(CC(C)C)NC(=O)c1cc(C(=O)N(C)Cc2ccccc2)cc(N(C)S(C)(=O)=O)c1)C(C)C (stereo not shown) [N1-benzyl-N3-(5-hydroxy-8-(1-(isobutylamino)-3-methyl-1-oxobutan-2-ylamino)-2,7-dimethyl-8-oxooctan-4-yl)-N1-methyl-5-(N-methylmethylsulfonamido)isophthalamide]
19 | 0.405 to 2 | > 20 | < 0.405 | < 0.405 | CCN(Cc1ccncc1)C(=O)c1cc(C)cc(C(=O)NC(CC(C)C)C(O)CC(C)C(=O)NC(C(=O)NCC(C)C)C(C)C)c1 (stereo not shown) [N1-ethyl-N3-(5-hydroxy-8-(1-(isobutylamino)-3-methyl-1-oxobutan-2-ylamino)-2,7-dimethyl-8-oxooctan-4-yl)-5-methyl-N1-(pyridin-4-ylmethyl)isophthalamide]
